According to ChEMBL document CHEMBL1135252, “Design and synthesis of antiangiogenic/heparin-binding arginine dendrimer mimicking the surface of endostatin” (Bioorg Med Chem Lett, 2002):

Key:
Gallus gallus [1] = species: Gallus gallus; test: Antiangiogenic activity in chicken embryo chorioallantoic membrane assay, at 10 ug/CAM was determined; format: functional, tissue-based
Rattus norvegicus = species: Rattus norvegicus; test: Salt concentration required for release from the heparin-agarose column was evaluated to determine the heparin- binding activity to inhibit the growth of rat lung endothelial(RLE) cells
Gallus gallus [2] = species: Gallus gallus; test: Antiangiogenic activity in chicken embryo chorioallantoic membrane assay, at 100 ug/CAM was determined; format: functional, tissue-based

SMILES: N=C(N)NCCCC(N)C(=O)NC(CCCNC(=N)N)C(=O)NCCCCC(NC(=O)C(CCCNC(=N)N)NC(=O)C(N)CCCNC(=N)N)C(=O)NCCCCC(NC(=O)C(CCCCNC(=O)C(CCCNC(=N)N)NC(=O)C(N)CCCNC(=N)N)NC(=O)C(CCCNC(=N)N)NC(=O)C(N)CCCNC(=N)N)C(=O)NCCCC(NC(=O)NCC(=O)O)NC(=O)C(CCCCNC(=O)C(CCCCNC(=O)C(CCCNC(=N)N)NC(=O)C(N)CCCNC(=N)N)NC(=O)C(CCCNC(=N)N)NC(=O)C(N)CCCNC(=N)N)NC(=O)C(CCCCNC(=O)C(CCCNC(=N)N)NC(=O)C(N)CCCNC(=N)N)NC(=O)C(CCCNC(=N)N)NC(=O)C(N)CCCNC(=N)N (stereo not drawn)
- inhibition (Gallus gallus [1]): 45.4%
- NaCl concentration (Rattus norvegicus): 1.2 M
- inhibition (Gallus gallus [2]): 70%
